Measured values as given in patent publication US9221809B2 (MERCK SHARP & DOHME CORP., priority 2011, dated 2015).
pIC50: −log10 of the molar value. Counter-ions that a name gives are not always drawn.

Each compound was assayed against IRAK4 (Homo sapiens (Human), UniProt Q9NWZ3) (assay: IRAK4 kinase activity, IMAP fluorescence polarization assay). Details: 100 μM ATP, 0.5 nM GST tagged IRAK4; read-out: IRAK4 IC50.
Assay type: biochemical
Outline: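 Fluorescence polarization (IMAP nanoparticle binding of phosphopeptide) reports activity after a 30 min, 25 °C reaction. Conditions: 100 μM ATP, 0.5 nM GST-IRAK4, 100 nM fluorescent peptide, 10 mM Tris pH 7.2, 1 mM MgCl2, 1 mM DTT, 0.01% Tween 20.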

IRAK4, sequence (Q9NWZ3 whole entry): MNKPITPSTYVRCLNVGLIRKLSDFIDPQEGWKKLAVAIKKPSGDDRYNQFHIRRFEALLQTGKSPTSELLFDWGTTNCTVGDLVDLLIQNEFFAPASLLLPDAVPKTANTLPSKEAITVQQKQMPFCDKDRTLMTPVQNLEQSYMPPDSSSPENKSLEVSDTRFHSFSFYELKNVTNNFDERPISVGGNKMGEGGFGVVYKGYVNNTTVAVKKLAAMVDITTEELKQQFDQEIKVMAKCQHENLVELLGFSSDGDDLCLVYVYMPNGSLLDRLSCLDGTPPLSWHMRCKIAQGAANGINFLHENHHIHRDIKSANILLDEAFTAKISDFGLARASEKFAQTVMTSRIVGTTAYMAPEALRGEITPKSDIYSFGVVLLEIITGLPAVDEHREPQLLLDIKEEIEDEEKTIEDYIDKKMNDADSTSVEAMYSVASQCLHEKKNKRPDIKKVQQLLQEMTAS

Compound	pIC50
O=c1[nH]c(N2CCCC2)nc(N[C@@H]2C[C@H](CO)[C@@H](O)[C@H]2O)c1-c1nc2ccccc2s1 [Example 25, 5-(Benzo[d]thiazol-2-yl)-6-(((1R,2S,3R,4R)-2,3-dihydroxy-4-(hydroxymethyl)cyclopentyl)amino)-2-(pyrrolidin-1-yl)pyrimidin-4(3H)-one.HCl]	7.74
CS(=O)(=O)N1CC2(CN(c3nc(N[C@@H]4C[C@H](CO)[C@@H](O)[C@H]4O)c(-c4nc5ccccc5s4)c(=O)[nH]3)C2)C1 [Example 14, 5-(Benzo[d]thiazol-2-yl)-6-((1R,2S,3R,4R)-2,3-dihydroxy-4-(hydroxymethyl)cyclopentylamino)-2-(6-(methylsulfonyl)-2,6-diazaspiro[3.3]heptan-2-yl)pyrimidin-4(3H)-one.HCl]	8.25
O=c1[nH]c(N2CCOCC2)nc(NC2CCCCNC2)c1-c1nc2ccccc2s1 (stereo not shown) [Example 92, 6-(Azepan-3-ylamino)-5-(benzo[d]thiazol-2-yl)-2-morpholinopyrimidin-4(3H)-one.HCl]	7.57
Cc1cnc(-c2c(N[C@@H]3CCCNC3)nc(N3CCOCC3)[nH]c2=O)s1 [Example 102, (R)-5-(5-methylthiazol-2-yl)-2-morpholino-6-(piperidin-3-ylamino)pyrimidin-4(3H)-one.HCl]	5.90
O=c1[nH]c(Nc2ccc(F)cc2)nc(N[C@@H]2C[C@H](CO)[C@@H](O)[C@H]2O)c1-c1nc2ccccc2s1 [Example 52, 5-(Benzo[d]thiazol-2-yl)-6-((1R,2S,3R,4R)-2,3-dihydroxy-4-(hydroxymethyl)cyclopentylamino)-2-(4-fluorophenylamino)pyrimidin-4(3H)-one.HCl]	6.55
O=c1[nH]c(N2CC3(COC3)C2)nc(N[C@@H]2C[C@H](CO)[C@@H](O)[C@H]2O)c1-c1nc2ccccc2s1 [Example 13, 5-(Benzo[d]thiazol-2-yl)-6-((1R,2S,3R,4R)-2,3-dihydroxy-4-(hydroxymethyl)cyclopentylamino)-2-(2-oxa-6-azaspiro[3.3]heptan-6-yl)pyrimidin-4(3H)-one.HCl]	8.05
O=c1[nH]c(NC2CCNC2)nc(N[C@@H]2C[C@H](CO)[C@@H](O)[C@H]2O)c1-c1nc2ccccc2s1 (stereo partly drawn) [Example 37, 5-(Benzo[d]thiazol-2-yl)-6-(((1R,2S,3R,4R)-2,3-dihydroxy-4-(hydroxymethyl)cyclopentyl)amino)-2-(pyrrolidin-3-ylamino)pyrimidin-4(3H)-one.HCl]	5.70

Same assay, conditions: 100 μM ATP; read-out: IC50

Compound	pIC50
O=c1[nH]c(N[C@H]2c3ccccc3C[C@@H]2O)nc(N[C@@H]2CCCNC2)c1-c1nc2ccccc2s1 [Example 291, 5-(benzo[d]thiazol-2-yl)-2-((1S,2S)-2-hydroxy-2,3-dihydro-1H-inden-1-ylamino)-6-((R)-piperidin-3-ylamino)pyrimidin-4(3H)-one]	5.52
O=c1[nH]c(N2CCOCC2)nc(NC2CNC2)c1-c1nc2ccccc2s1 [Example 253, 6-[(azetidin-3-yl)amino]-5-(1,3-benzothiazol-2-yl)-2-(morpholin-4-yl)-3,4-dihydro-pyrimidin-4-one]	6.52

Same assay, conditions: 100 μM ATP; read-out: IRAK4 IC50

Compound	pIC50
Cc1cc(N2CCN(c3nc(N[C@@H]4CCCNC4)c(-c4nc5ccccc5s4)c(=O)[nH]3)CC2)sn1 [Example 157, (R)-5-(benzo[d]thiazol-2-yl)-2-(4-(3-methylisothiazol-5-yl)piperazin-1-yl)-6-(piperidin-3-ylamino)pyrimidin-4(3H)-one]	8.10
O=c1[nH]c(N2CCN(c3ccc(Cl)cn3)CC2)nc(N[C@@H]2CCCNC2)c1-c1nc2ccccc2s1 [Example 144, (R)-5-(benzo[d]thiazol-2-yl)-2-(4-(5-chloropyridin-2-yl)piperazin-1-yl)-6-(piperidin-3-ylamino)pyrimidin-4(3H)-one]	8.10

The remaining lines, values ahead:

pIC50	Compound
6.82	O=c1[nH]c(N2CCOCC2)nc(N[C@@H]2CCCNC2)c1-c1nc(-c2ccc(Cl)cc2)cs1 [Example 202]
5.46	O=c1[nH]c(N2CCOCC2)nc(N[C@@H]2CCCNC2)c1-c1cncc(-n2cccc2)n1 [Example 198]
